Reference: US8367642B2, “Methods of preventing or treating diseases and conditions using complex carbohydrates” (Dermal Research Laboratories, Inc., priority 2000, dated 2013)

What was measured:
[1] = system: polymyositis; assay: Polymyositis in the same patient (Example 4); type: in vivo, human; conditions: 50 mg daily, before hyaluronate
Procedure: A person suffering from colon cancer had been unable to tolerate their colostomy and demanded that their surgeon remove the colostomy and reconnect their colon. They refused chemotherapy. They were given a formulation of 1% sodium hyaluronate (Collaborative Laboratories, Inc) which was prepared with a mixture of molecular weights of hyaluronate (as described in EXAMPLE 1). When they began taking the hyaluronate preparation, their CEA was 70.1. They have taken the hyaluronate at a dose of 10 mg three times per day mucosally and after 6 months of treatment their CEA has dropped to 4.1. They have taken no other treatments. This patient had also suffered from polymyositis for approximately 15 years. For this condition they were taking 50 mg of Prednisone daily with little relief. […] After 6 months of treatment with hyaluronate, they have been able to reduce their Prednisone to 5 mg every other day. […] The polymyositis that was successfully treated in this example was thought to represent treatment of a disease associated with the adhesion cascade or autoimmune disease.

[2] = system: ADHD; assay: child with ADHD, behaviour scores (Example 7, FIG. 2); type: in vivo, human; conditions: prescribed daily, earlier treatment
Excerpt: The subject child was a person who has suffered with ADHD all their life. […] Additionally, their behavior was such that they could not socialize with other children or with adults. When in contact with other children they were unable to play, often became angered and caused physical harm to others. They had been under treatment by several physicians, psychologists and allergists all their life but none were able to help their condition. The allergists determined that they had allergies to most all foods, dust, molds, soaps and just about everything in their environment. At one time they were prescribed Ritalin daily. […]
This child attended a special school in which their Teachers reported their daily activity to their parents so that they could try to monitor their eating habits. […] Their response was monitored by using the numerical score provided by their teachers and averaging it with a numerical score of their behavior at home provided by their parents. […] Their parents have commented that they have awakened in the morning and is happy, cheerful and cooperative in getting ready for school. […] If their behavior was belligerent, bossy, angry or non-cooperative they were scored as a −40 for the day. If their reactions to foods or environmental stimuli produced such a response it was recorded as a −40. If they responded as a normal person, the score was recorded as 0. […]

[3] = system: attention deficit disorder (ADD); assay: Adult with attention deficit disorder, daily response (Example 5, FIG. 1); type: in vivo, human; conditions: earlier treatment
Excerpt: The subject adult was a person who had suffered all their life with attention deficit disorder (ADD).
They never knew what their problem was until recently when they were diagnosed. They described their childhood as unfocused and explained that they felt as though they were in a constant mental fog—unable to think clearly, or for that matter, unable to focus on a thought at all. […] Exposure to only a few minutes in a moldy room caused this individual to become dazed, unable to think, focus or even stay awake. They had only been able to do menial jobs. They spent most of their time staring out the window with no thoughts in their mind and, even if they tried, could not focus on a thought or task. They described themself as believing all their life that they were just stupid and unable to learn. They had been to multiple physicians and psychiatrists seeking treatment with no success. They had taken Ritalin with little relief. It allowed them to function partially but they were always tired and unable to focus on anything but the simplest of tasks. They agreed to take the oral sodium hyaluronate product and their family would report how they reacted. […]
FIG. 1 plots the response of this patient while taking the compositions of the present invention. […] If there were no significant negative or positive responses during a day, the reaction rate was recorded as 0. […]

[4] = system: Attention Deficit Hyperactivity Disorder (ADHD) complicated by Turret's Syndrome; assay: Treatment of a child with ADHD complicated by Turret's Syndrome (Example 2); type: in vivo, human; conditions: earlier treatment, discontinued 1.5 year before
Procedure: This treatment was not complicated by concurrent treatment with drugs such as Ritalin as their parents were adverse to using this medication. Therefore, any response observed was related to the use of the complex carbohydrates of the present invention. They took 10 mg in the morning and 10 mg in the evening, using the solution as a mouthwash (holding it in their mouth for about 10 to 20 seconds and then swallowing). […] However, within 15 minutes of their receiving the missing dose, they became calm and returned to normal. This child has remained totally under control for 6 months. This had never been observed before, even when they were taking Ritalin. […] It has been concluded that a disease typically thought to be related to a nervous disorder or to allergies was treatable by the complex carbohydrates of the present invention.

[5] = system: chronic eczema; assay: Chronic eczema with yeast infection (Example 14); design: species or system human; conditions: in vivo
Excerpt: A person suffered from chronic eczema—scaly and red areas on their neck and arms. They had also been diagnosed with a yeast infection associated with the eczema. […] They initially used a topical preparation prepared according to this invention. This contained a mixture of low and high molecular weight sodium hyaluronate (prepared as in EXAMPLE 1) mixed with 1% Wintergreen Oil, 1% Spearmint Oil, and 0.5% Peppermint Oil. They applied it topically for four weeks. […] However, there was still itching and redness. They then began to orally take the 1% mixture, of low and high molecular weight sodium hyaluronate described in example 1. They reported that within 2 weeks all signs of the eczema had disappeared, the itching was gone and they felt better than they had felt for years. The oral dose required was 5 mg TID for this 91 pound person. Therefore, the dose was […].

[6] = system: lick granulomas; assay: Lick granuloma of a Labrador retriever (Example 12); type: in vivo, dog; conditions: cortisone injections and hydrocortisone creams
Procedure: An eleven year old Labrador retriever had suffered from lick granulomas for at least 3 years. […] This dog's granuloma was located on the left hind leg above the pasturn. The swelling around the leg measured 8 inches in diameter and the open wound measured 4×3 inches. […] This dog was injected with 10 mg of sodium hyaluronate having a molecular weight ranging from 30,000 to 400,000 (1.0 mL intramuscularly—equivalent to 10 mg). The open wound began to heal. This injection was followed up with topical application of a low molecular weight hyaluronic acid prepared by making a 1% (wt/vol) solution of hyaluronic acid (Medex Ltd) containing 1% Wintergreen Oil (Loranne Oil), 1% Spearmint Oil (Loranne Oil) and 0.5% Peppermint Oil (Loranne Oil). The topical formulation was applied at least two times per day. […] The dog has not licked this area since treatment began. Therefore, the complex carbohydrates of the present invention are able to successfully treat lick granulomas (a previously untreatable condition of dogs) and eliminate the cause of the licking.

[7] = system: interstitial cystitis; assay: Interstitial cystitis patient (Example 8); type: in vivo, human; conditions: 100 mg per day of macrodantin and 20 mg per day of feldene, earlier treatment
Procedure: Additionally, they had taken 200 mg TID of Elmiron to reduce the inflammation in the bladder lining. […] In order to sleep they took Prosed/DS, Ultram, Hydroxyzine HCl, Cardura, Amitriptyline. Sometimes all were taken at some time during the day or night. […] This patient was supplied with the mixed molecular weight preparation of sodium hyaluronate as described in EXAMPLE 1. They were also supplied with a topical preparation containing 1% wt/vol. Sodium hyaluronate at a molecular weight of <30,000 combined with 1% Oil of Wintergreen, 0.5% Spearmint Oil and 0.2% Peppermint Oil. They took 10 mg of the oral preparation 4 times per day. The last dose was taken before going to bed. Additionally, at bedtime, they rubbed their lower abdomen (over the bladder) with the topical preparation.

[8] = system: joint pain; conditions: oral doses between 1000 and 3000 mg/day (>15 mg/Kg); cited from earlier work
[9] = system: anti-coagulant activity; conditions: cited from earlier work

C[C@]12C=CC(=O)C=C1CC[C@@H]1[C@@H]2C(=O)C[C@@]2(C)[C@H]1CC[C@]2(O)C(=O)CO [Prednisone]
relief of polymyositis [1]: little relief

COC(=O)C(c1ccccc1)C1CCCCN1 (centres unmarked) [Ritalin]
reaction while taking the drug [2]: suffered hallucinations and became even more uncontrollable | relief of ADD [3]: little relief | side effects [4]: problems with side effects

C[C@]12CCC(=O)C=C1CC[C@@H]1[C@@H]2C(=O)C[C@@]2(C)[C@H]1CC[C@]2(O)C(=O)CO [cortisone]
effect of earlier treatment on eczema [5]: no significant effect | success of earlier treatment of lick granuloma [6]: little success

CN1C(C(=O)Nc2ccccn2)=C(O)c2ccccc2S1(=O)=O [feldene]
side effects [7]: severe side effects

C[C@]12CCC(=O)C=C1CC[C@@H]1[C@@H]2[C@@H](O)C[C@@]2(C)[C@H]1CC[C@]2(O)C(=O)CO [hydrocortisone]
success of earlier treatment of lick granuloma [6]: little success

O=C1CN(/N=C/c2ccc([N+](=O)[O-])o2)C(=O)N1 [macrodantin]
side effects [7]: severe side effects

chondroitin sulfate
time until relief from joint pain [8]: 6-9 months

low molecular weight heparin
anti-coagulant activity [9]: free of anti-coagulant activity
